Experimental data published in the supplement of paper PMC11061612.

Columns and labels:
Test in all cases: combination Emax (second highest fraction inhibited in the dose matrix, 72 h); higher = more inhibition; extreme values may be limits of the assay
[1] = test system: OCI-AML2 (Acute Myeloid Leukemia)
How it was run: (§1)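 After 24 hours at 37°C and 5% CO2 in 1536-well plates, cells in DMEM/F12 or RPMI plus 10% FBS received two-drug dose matrices for 72 hours. Viability came from CellTiter-Glo 2.0 luminescence and was scaled as inhibition, anchored at 0 by vehicle wells and at 1 by blank wells. Combination Emax is taken as the second-highest inhibition in the matrix, and Bliss excess as the observed combination effect less EA + EB − EA·EB, with EA and EB the single-agent effects.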

[2] = test system: NALM-6 (B-Lymphoblastic Leukemia)
How it was run: as §1

[3] = test system: SW1990 (Pancreatic Carcinoma)
How it was run: as §1

[4] = test system: MDA-MB-231 (Breast Carcinoma)
How it was run: as §1

[5] = test system: COR-L23 (Non-Small Cell Lung Carcinoma)
How it was run: as §1

SN12C (Kidney Carcinoma) = test system: SN12C (Kidney Carcinoma)
How it was run: as §1

[6] = test system: C3A (Hepatocellular Carcinoma)
How it was run: as §1

[7] = test system: MFH-ino (Other Solid Carcinomas)
How it was run: as §1

[8] = test system: TGBC24TKB (Biliary Tract Carcinoma)
How it was run: as §1

[9] = test system: NCI-H1781 (Lung Adenocarcinoma)
How it was run: as §1

SK-N-FI (Neuroblastoma) = test system: SK-N-FI (Neuroblastoma)
How it was run: as §1

[10] = test system: DMS-273 (Small Cell Lung Carcinoma)
How it was run: as §1

[11] = test system: 697 (B-Lymphoblastic Leukemia)
How it was run: as §1

[12] = test system: LU-99A (Non-Small Cell Lung Carcinoma)
How it was run: as §1

[13] = test system: SW1088 (Low Grade Glioma)
How it was run: as §1

[14] = test system: NCI-H1299 (Non-Small Cell Lung Carcinoma)
How it was run: as §1

[15] = test system: HCC2157 (Breast Carcinoma)
How it was run: as §1

J82 (Bladder Carcinoma) = test system: J82 (Bladder Carcinoma)
How it was run: as §1

[16] = test system: IHH-4 (Thyroid Gland Carcinoma)
How it was run: as §1

[17] = test system: CFPAC-1 (Pancreatic Carcinoma)
How it was run: as §1

COc1nnc2ccc(N3CCC(c4ccc(OCCN5CCN(C)C(=O)[C@H]5C)cc4)CC3)nn12 [AZD5153] + C[C@@H]1COCCN1C2=NC(=NC(=C2)C3(CC3)[S@](=N)(=O)C)C4=C5C=CNC5=NC=C4 [AZD6738] (first compound max 1 µM, 7x7, partner max 10 µM)
combination Emax [1]: 1
combination Emax [2]: 0.958
combination Emax [3]: 0.497
combination Emax [4]: 0.81
combination Emax [5]: 0.772
combination Emax (SN12C (Kidney Carcinoma)): 0.204
combination Emax [6]: 0.741
combination Emax [7]: 0.547
combination Emax [8]: 0.855
combination Emax [9]: 0.491
combination Emax (SK-N-FI (Neuroblastoma)): 0.783
combination Emax [10]: 0.883
combination Emax [11]: 1
combination Emax [12]: 0.755
combination Emax [13]: 0.645
combination Emax [14]: 0.794
combination Emax [15]: 1
combination Emax (J82 (Bladder Carcinoma)): 0.604
combination Emax [16]: 0.772
combination Emax [17]: 0.574

COc1cccc2c1C(=O)c1c(O)c3c(c(O)c1C2=O)C[C@@](O)(C(=O)CO)C[C@@H]3O[C@H]1C[C@H](N)[C@H](O)[C@H](C)O1 [Doxorubicin] + Cc1cc2ncnn2cc1Nc1ncc2c(n1)n(C1CCOCC1)c(=O)n2C [AZD7648] (first compound max 1 µM, 7x7, partner max 10 µM)
combination Emax [1]: 1
combination Emax [2]: 1
combination Emax [3]: 0.303
combination Emax [4]: 0.786
combination Emax [5]: 0.432
combination Emax (SN12C (Kidney Carcinoma)): 0.642
combination Emax [6]: 0.485
combination Emax [7]: 0.608
combination Emax [8]: 0.318
combination Emax [9]: 0.932
combination Emax (SK-N-FI (Neuroblastoma)): 0.373
combination Emax [10]: 0.866
combination Emax [11]: 1
combination Emax [12]: 0.751
combination Emax [13]: 0.477
combination Emax [14]: 0.66
combination Emax [15]: 0.925
combination Emax (J82 (Bladder Carcinoma)): 0.41
combination Emax [16]: 0.951
combination Emax [17]: 0.586

Cc1c2c(nn1C)CSCc1cc(n(C)n1)CSc1cc(c3ccccc3c1)OCCCc1c(C(=O)O)n(C)c3c-2c(Cl)ccc13 [AZD5991] + CC1(C)CCC(CN2CCN(c3ccc(C(=O)NS(=O)(=O)c4ccc(NCC5CCOCC5)c([N+](=O)[O-])c4)c(Oc4cnc5[nH]ccc5c4)c3)CC2)=C(c2ccc(Cl)cc2)C1 [Venetoclax] (first compound max 1 µM, 7x7, partner max 1 µM)
combination Emax [1]: 1
combination Emax [2]: 0.949
combination Emax [3]: 0.164
combination Emax [4]: 0.216
combination Emax [5]: 0.164
combination Emax (SN12C (Kidney Carcinoma)): 0.21
combination Emax [6]: 0.181
combination Emax [7]: 0.182
combination Emax [8]: 0.304
combination Emax [9]: 0.432
combination Emax (SK-N-FI (Neuroblastoma)): 0.65
combination Emax [10]: 0.964
combination Emax [11]: 1
combination Emax [12]: 0.111
combination Emax [13]: 0.248
combination Emax [14]: 0.258
combination Emax [15]: 0.985
combination Emax (J82 (Bladder Carcinoma)): 0.164
combination Emax [16]: 0.253
combination Emax [17]: 0.143

CCc1c2c(nc3ccc(O)cc13)-c1cc3c(c(=O)n1C2)COC(=O)[C@]3(O)CC [SN-38] + CN(C)CCCOc1ccc(-c2ccc3ncc4c(c3c2)n(C2CCOCC2)c(=O)n4C)cn1 [AZD0156] (first compound max 0.3 µM, 7x7, partner max 1 µM)
combination Emax [1]: 1
combination Emax [2]: 1
combination Emax [3]: 0.525
combination Emax [4]: 0.658
combination Emax [5]: 0.686
combination Emax (SN12C (Kidney Carcinoma)): 0.738
combination Emax [6]: 0.557
combination Emax [7]: 0.812
combination Emax [8]: 0.533
combination Emax [9]: 0.99
combination Emax (SK-N-FI (Neuroblastoma)): 0.669
combination Emax [10]: 0.802
combination Emax [11]: 1
combination Emax [12]: 0.769
combination Emax [13]: 0.54
combination Emax [14]: 0.529
combination Emax [15]: 0.969
combination Emax (J82 (Bladder Carcinoma)): 0.784
combination Emax [16]: 1
combination Emax [17]: 0.789

COc1nnc2ccc(N3CCC(c4ccc(OCCN5CCN(C)C(=O)[C@H]5C)cc4)CC3)nn12 [AZD5153] + Cn1cnc2c(F)c(Nc3ccc(Br)cc3Cl)c(C(=O)NOCCO)cc21 [Selumetinib] (first compound max 1 µM, 7x7, partner max 10 µM)
combination Emax [1]: 1
combination Emax [2]: 0.886
combination Emax [3]: 0.265
combination Emax [4]: 0.73
combination Emax [5]: 0.422
combination Emax (SN12C (Kidney Carcinoma)): 0.277
combination Emax [6]: 0.777
combination Emax [7]: 0.636
combination Emax [8]: 0.893
combination Emax [9]: 0.327
combination Emax (SK-N-FI (Neuroblastoma)): 0.844
combination Emax [10]: 0.71
combination Emax [11]: 1
combination Emax [12]: 0.949
combination Emax [13]: 0.513
combination Emax [14]: 0.729
combination Emax [15]: 1
combination Emax (J82 (Bladder Carcinoma)): 0.496
combination Emax [16]: 0.662
combination Emax [17]: 0.584

CC1(C)CCC(CN2CCN(c3ccc(C(=O)NS(=O)(=O)c4ccc(NCC5CCOCC5)c([N+](=O)[O-])c4)c(Oc4cnc5[nH]ccc5c4)c3)CC2)=C(c2ccc(Cl)cc2)C1 [Venetoclax] + Cn1cnc2c(F)c(Nc3ccc(Br)cc3Cl)c(C(=O)NOCCO)cc21 [Selumetinib] (first compound max 1 µM, 7x7, partner max 3 µM)
combination Emax [1]: 1
combination Emax [2]: 0.908
combination Emax [3]: 0.49
combination Emax [4]: 0.38
combination Emax [5]: 0.2
combination Emax (SN12C (Kidney Carcinoma)): 0.206
combination Emax [6]: 0.434
combination Emax [7]: 0.201
combination Emax [8]: 0.293
combination Emax [9]: 0.166
combination Emax (SK-N-FI (Neuroblastoma)): 0.471
combination Emax [10]: 0.214
combination Emax [11]: 1
combination Emax [12]: 0.324
combination Emax [13]: 0.146
combination Emax [14]: 0.202
combination Emax [15]: 0.278
combination Emax (J82 (Bladder Carcinoma)): 0.122
combination Emax [16]: 0.539
combination Emax [17]: 0.275
